Measured values from ChEMBL document CHEMBL1146913, “Symmetrical and unsymmetrical analogues of isoxyl; active agents against Mycobacterium tuberculosis” (2006).
In brackets after ≈: the same amount, converted by molar mass.

How the values were obtained:
[1] = tested on: Mycobacterium tuberculosis; assay: Antibacterial activity against Mycobacterium tuberculosis H37Rv; format: functional
Vero = assay: Selectivity index, IC50 against Vero cells/MIC against Mycobacterium; format: functional

With CCCSc1ccc(NC(=S)Nc2ccc(Cc3ccccc3)cc2)cc1 the MIC99 [1] was 1.56 µg/mL (≈ 3.97 µM) and the Selectivity index (Vero) was 5.28.
For CC(C)CSc1ccc(NC(=S)Nc2ccc(SCC(C)C)cc2)cc1, the MIC99 [1] was 0.78 µg/mL (≈ 1.93 µM) and the Selectivity index (Vero) was 12.4.
CCCCOc1ccc(NC(=S)Nc2ccc(SCCC)cc2)cc1 was tested, and the MIC99 [1] was 0.2 µg/mL (≈ 0.534 µM) and the Selectivity index (Vero) was 45.5.
Compound CCCCOc1ccc(NC(=S)Nc2ccc(OCC(C)C)cc2)cc1 has an MIC99 [1] of 0.1 µg/mL (≈ 0.268 µM) and a Selectivity index (Vero) of 79.9.
For CC(C)CCOc1ccc(NC(=S)Nc2ccc(Cc3ccccc3)cc2)cc1, the MIC99 [1] was 0.2 µg/mL (≈ 0.494 µM) and the Selectivity index (Vero) was 48.
In the case of CCCCOc1ccc(NC(=S)Nc2ccc(CCCC)cc2)cc1, the MIC99 [1] is reported as < 0.1 µg/mL and the Selectivity index (Vero) is reported as 87.
In the case of CCCOc1ccc(NC(=S)Nc2ccc(OCCC)cc2)cc1, the MIC99 [1] is reported as 0.2 µg/mL (≈ 0.581 µM) and the Selectivity index (Vero) is reported as 44.
In the case of CCCCc1ccc(NC(=S)Nc2ccc(OCCC)cc2)cc1, the MIC99 [1] is reported as < 0.1 µg/mL and the Selectivity index (Vero) is reported as 100.
In the case of CCCCOc1ccc(NC(=S)Nc2ccc(SCC(C)C)cc2)cc1, the MIC99 [1] is reported as > 6.25 µg/mL.
Work on CCCCOc1ccc(NC(=S)Nc2ccc(Cc3ccccc3)cc2)cc1 yielded an MIC99 [1] of 0.39 µg/mL (≈ 0.999 µM) and a Selectivity index (Vero) of 22.1.
For CCCCOc1ccc(NC(=S)Nc2ccc(OCCC(C)C)cc2)cc1, the MIC99 [1] was < 0.1 µg/mL and the Selectivity index (Vero) was 89.
Compound CC(C)CCOc1ccc(NC(=S)Nc2ccc(OCCC(C)C)cc2)cc1 [TIOCARLIDE] has an MIC99 [1] of 2 µg/mL (≈ 4.99 µM) and a Selectivity index (Vero) of 82.
CC(C)CCOc1ccc(NC(=S)Nc2ccc(OCC(C)C)cc2)cc1 was tested, and the MIC99 [1] was 0.39 µg/mL (≈ 1.01 µM) and the Selectivity index (Vero) was 72.
